Results: patent publication US10011573B2, “Human androgen receptor DNA-binding domain (DBD) compounds as therapeutics and methods for their use” (The University of British Columbia, priority 2014, dated 2018)
pIC50: −log10 of the molar value. Like-named read-outs stand apart in the source and are kept apart here. Values belong to the compound of their own block, whether it stands above or below them.

Assays:
PSA = assay: Prostate-specific antigen (PSA) assay, secreted PSA from the eGFP assay plates; assay type: cell-based, human
Protocol: 3. Prostate-specific antigen (PSA) assay: The evaluation of PSA levels secreted into the media was performed in parallel to the eGFP assay using the same plates. After cells were incubated for 3 days, 150 μl of the media was taken from each well, and added to 150 μl of PBS.

androgen receptor (AR) = molecular target: T1, androgen receptor (AR) (Homo sapiens, UniProt P10275, T878A); assay: eGFP cellular AR transcription assay (LNCaP eGFP cells, LN-ARR2PB-eGFP); details: for inhibition at 3 µM: LNCaP, read-out: % Inhibition (3 μM); for IC50: eGFP IC50 (μM); for pIC50: read-out: eGFP IC50
T1 sequence (P10275 1-920 T878A): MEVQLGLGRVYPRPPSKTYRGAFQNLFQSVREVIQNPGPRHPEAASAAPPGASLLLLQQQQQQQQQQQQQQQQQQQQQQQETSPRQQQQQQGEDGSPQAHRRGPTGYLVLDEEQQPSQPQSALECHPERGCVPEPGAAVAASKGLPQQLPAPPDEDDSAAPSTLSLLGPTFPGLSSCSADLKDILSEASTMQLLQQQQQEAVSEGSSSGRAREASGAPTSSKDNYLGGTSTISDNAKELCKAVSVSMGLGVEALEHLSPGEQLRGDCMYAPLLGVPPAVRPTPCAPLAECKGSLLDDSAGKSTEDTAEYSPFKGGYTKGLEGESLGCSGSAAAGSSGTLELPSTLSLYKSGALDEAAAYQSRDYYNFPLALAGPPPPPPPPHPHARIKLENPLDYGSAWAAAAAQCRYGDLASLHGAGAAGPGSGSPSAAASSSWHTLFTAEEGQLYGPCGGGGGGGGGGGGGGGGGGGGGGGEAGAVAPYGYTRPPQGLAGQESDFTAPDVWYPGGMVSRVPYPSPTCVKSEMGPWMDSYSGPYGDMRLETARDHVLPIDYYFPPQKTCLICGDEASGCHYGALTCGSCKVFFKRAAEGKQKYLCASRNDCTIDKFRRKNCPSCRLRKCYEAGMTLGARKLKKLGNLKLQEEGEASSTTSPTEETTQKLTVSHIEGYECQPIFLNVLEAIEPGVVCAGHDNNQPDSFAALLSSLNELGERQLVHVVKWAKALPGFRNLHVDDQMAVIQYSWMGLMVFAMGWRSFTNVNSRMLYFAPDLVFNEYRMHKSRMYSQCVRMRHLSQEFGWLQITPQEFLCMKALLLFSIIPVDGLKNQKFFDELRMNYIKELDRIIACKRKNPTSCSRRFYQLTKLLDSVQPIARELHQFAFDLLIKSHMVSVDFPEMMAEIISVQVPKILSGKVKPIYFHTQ

Structure (SMILES): Oc1c(-c2csc(N3CCOCC3)n2)ccc(F)c1F [Compound 14371]
pIC50 (PSA; Homo sapiens, Series 1): 6.15
inhibition at 3 µM (androgen receptor (AR)): 98.9%
IC50 (androgen receptor (AR); Series 1): 0.8 µM

Structure (SMILES): Oc1ccc2nc(N3CCOCC3)sc2c1 [Compound 14378]
pIC50 (PSA; Homo sapiens, secreted PSA): 5.09
inhibition at 3 µM (androgen receptor (AR)): 57.5%
IC50 (androgen receptor (AR); LNCaP eGFP cells): 7.41 µM

Structure (SMILES): Cc1ncn(-c2csc(N3CCOCC3)n2)c1C [Compound 14399]
pIC50 (PSA; Series 1): 5.62
pIC50 (androgen receptor (AR)): 5.44

Structure (SMILES): Clc1ncn(-c2csc(N3CCOCC3)n2)c1Cl [Compound 14402, 4-(4-(4,5-dichloro-1H-imidazol-1-yl)thiazol-2-yl)morpholine]
pIC50 (PSA; Homo sapiens, Series 1): 6.24
IC50 (androgen receptor (AR); Series 1): 0.66 µM

Structure (SMILES): CC(C)Oc1c(F)cccc1-c1csc(N2CCOCC2)n1 [Compound 14430]
inhibition at 3 µM (androgen receptor (AR)): 106%
IC50 (androgen receptor (AR); Series 1): 5.27 µM

Structure (SMILES): N#Cc1cc2ccccc2nc1N1CCOCC1 [Compound 14433]
IC50 (androgen receptor (AR); LNCaP eGFP cells): 1.95 µM

Structure (SMILES): Clc1ccccc1-c1csc(N2CCOCC2)n1 [Compound 14437]
% Inhibition (3 μM) (androgen receptor (AR)): 45.04%

Structure (SMILES): Oc1ccc(-c2ccc3ccccc3n2)cc1 [Compound 14440]
inhibition at 3 µM (androgen receptor (AR)): 8.65%
IC50 (androgen receptor (AR); LNCaP eGFP cells): 9.48 µM

Structure (SMILES): COc1ccc(-c2csc(-c3c[nH]c4ccccc34)n2)cc1 [Compound 14443]
% Inhibition (3 μM) (androgen receptor (AR)): 25.15%

Structure (SMILES): Clc1cnccc1-c1csc(N2CCOCC2)n1 [Compound 14446]
% Inhibition (3 μM) (androgen receptor (AR)): 24%

Structure (SMILES): N#Cc1ccc(-c2csc(N3CCOCC3)n2)cc1 [Compound 14457]
% Inhibition (3 μM) (androgen receptor (AR); 3 µM): 80%

Structure (SMILES): O=C1C(Cl)=C(N2CCOCC2)C(=O)N1c1ccccc1Cl [Compound 14475]
% Inhibition (3 μM) (androgen receptor (AR)): 8.89%

Structure (SMILES): O=C1C(Cl)=C(N2CCOCC2)C(=O)N1c1ccccc1 [Compound 14476]
% Inhibition (3 μM) (androgen receptor (AR)): 9.79%

Structure (SMILES): FC(F)(F)c1cccc(-c2csc(-c3cnccn3)n2)c1 [Compound 14486]
% Inhibition (3 μM) (androgen receptor (AR)): 20.4%

Structure (SMILES): CC1CN(c2cnc3ccccc3n2)CC(C)O1 (stereo not shown) [Compound 14487]
inhibition at 3 µM (androgen receptor (AR)): 27%

Structure (SMILES): c1ccc2c(c1)ncn2-c1csc(N2CCOCC2)n1 [Compound 14509]
pIC50 (androgen receptor (AR)): 5.93

Next, values leading:

pIC50 (PSA; Homo sapiens, Series 1): 6.60
anti-AR activity (AR transcriptional inhibition) in words (androgen receptor (AR); LNCaP (T877A AR)): improved activities
inhibition at 3 µM (androgen receptor (AR)): 107%
IC50 (androgen receptor (AR); Series 1): 0.19 µM
Structure (SMILES): COc1c(-c2csc(N3CCOCC3)n2)ccc(F)c1F [Compound 14370]

pIC50 (PSA; Homo sapiens, secreted PSA): 5.91
inhibition at 3 µM (androgen receptor (AR)): 80.2%
IC50 (androgen receptor (AR); LNCaP eGFP cells): 2.6 µM
Structure (SMILES): c1ccc(-c2ccc3ccccc3n2)cc1 [Compound 14390]

pIC50 (PSA; Homo sapiens, secreted PSA): 4.98
inhibition at 3 µM (androgen receptor (AR)): 55.5%
IC50 (androgen receptor (AR); LNCaP eGFP cells): 7.07 µM
Structure (SMILES): CCC1CN(c2nc3ccccc3s2)CCO1 (stereo not shown) [Compound 14392]

pIC50 (PSA; Homo sapiens, secreted PSA): 6.27
inhibition at 3 µM (androgen receptor (AR)): 103%
IC50 (androgen receptor (AR); LNCaP eGFP cells): 0.54 µM
Structure (SMILES): N#Cc1cc(N2CCOCC2)nc2ccccc12 [Compound 14395]

pIC50 (PSA; Homo sapiens, secreted PSA): 6.07
IC50 (androgen receptor (AR); LNCaP eGFP cells): 0.82 µM
Structure (SMILES): O=[N+]([O-])c1cccc2ccc(N3CCOCC3)nc12 [Compound 14398]

pIC50 (PSA; Homo sapiens, secreted PSA): 6.42
inhibition at 3 µM (androgen receptor (AR)): 79%
IC50 (androgen receptor (AR); LNCaP eGFP cells): 0.46 µM
Structure (SMILES): Oc1cccc2ccc(N3CCOCC3)nc12 [Compound 14400]

pIC50 (PSA; Homo sapiens, secreted PSA): 6.16
inhibition at 3 µM (androgen receptor (AR)): 76%
IC50 (androgen receptor (AR); LNCaP eGFP cells): 0.85 µM
Structure (SMILES): c1ccc2nc(N3CCOCC3)ccc2c1 [Compound 14401]

IC50 (androgen receptor (AR); LNCaP eGFP cells): 1.09 µM
Structure (SMILES): Cc1cc(N2CCOCC2)nc2ccccc12 [Compound 14434]

inhibition at 3 µM (androgen receptor (AR)): 17.3%
Structure (SMILES): O=c1[nH]c(N2CCOCC2)cc2ccccc12 [Compound 14453]

inhibition at 3 µM (androgen receptor (AR)): 0%
Structure (SMILES): O=[N+]([O-])c1ccc2nc(N3CCOCC3)ccc2c1 [Compound 14454]

IC50 (androgen receptor (AR); Series 1): 0.11 µM
Structure (SMILES): Clc1scc(-c2csc(N3CCOCC3)n2)c1Cl [Compound 14462]

IC50 (androgen receptor (AR); Series 1): 3.06 µM
Structure (SMILES): CNc1cc(F)c(OC)c(-c2csc(N3CCOCC3)n2)c1 [Compound 14465]

IC50 (androgen receptor (AR); Series 1): 0.4 µM
Structure (SMILES): Cc1sc(CO)c(-c2csc(N3CCOCC3)n2)c1C [Compound 14466]

IC50 (androgen receptor (AR); Series 1): 3.7 µM
Structure (SMILES): COc1c(F)cc(O)cc1-c1csc(N2CCOCC2)n1 [Compound 14467]

inhibition at 3 µM (androgen receptor (AR)): 89.4%
IC50 (androgen receptor (AR); LNCaP eGFP cells): 0.6 µM
Structure (SMILES): c1ccc2nc(N3CCCCC3)ccc2c1 [Compound 14495]

inhibition at 3 µM (androgen receptor (AR)): 0%
Structure (SMILES): O=C(O)c1csc(N2CCOCC2)n1 [Compound 14502]
